Source: PMC5626031, “Differential inhibition of adenylylated and deadenylylated forms of M. tuberculosis glutamine synthetase as a drug discovery platform” (PLoS ONE, 2017)
Values joined by “and” are separate entries in the source; they are usually repeats but may differ in a detail not shown here. Equal entries are not always repeated. “Also recorded” adds a separate entry of the source. Where two headings read alike, the source gives them in different places.

How the values were obtained:
[1] = target: T1, adenylylated MtbGS (Mycobacterium tuberculosis, UniProt P9WN39); assay: biochemical; format: biochemical, M. tuberculosis; details: for inhibition at 10 µM: 10μM final concentration; for Selectivity for adenylylated vs deadenylylated MtbGS: from % inhibition at 10μM of both enzyme forms; for IC50: dose-response assay
T1 construct: made in house; host or cells: E. coli YMC11E(DE3) with pTBSK and pTBglnE

[2] = target: T2, deadenylylated MtbGS (Mycobacterium tuberculosis, UniProt P9WN39); assay: biochemical; set-up: species or system M. tuberculosis; details: pre-incubation protocol; for inhibition at 10 µM: 10μM final concentration; for IC50: dose-response assay, single assay values
T2 construct: made in house; host or cells: E. coli YMC11E with pTBSK

[3] = system: M.tb H37Rv reference strain; assay: BACTEC 460TB assay of mycobacterial growth; format: cell-based, Mycobacterium tuberculosis; details: for Activity against M.tb H37Rv, in words: 100 μM final concentration; for Growth inhibition of M.tb H37Rv (percentage of growth index): 100 μM, day 6 of incubation, relative to control cultures
[4] = system: M.tb (Beijing220) in mouse bone-marrow derived macrophages; assay: Intracellular M.tb in mouse bone-marrow derived macrophage assay; format: cell-based, Mycobacterium tuberculosis; details: for Activity against intracellular M.tb (Beijing220), in words / Percentage killing of intracellular M.tb (Beijing220), Fig 7: 100 μM; for Activity against intracellular M.tb (Beijing220), in words: Fig 7; for Percentage killing of intracellular M.tb (Beijing220), Fig 7: MOI 2:1, drug on day 4 post infection, harvest day 2 post drug, first experiment (8 selective compounds)
[5] = system: M.tb H37Rv reference strain (ATCC 25618); set-up: method as in PMID 9145860; details: approximately 10x higher than the minimal inhibitory concentrations; cited from earlier work
[6] = system: M.tb (Beijing220) clinical isolate; details: cited from earlier work
[7] = pre-incubation protocol, average over the 4 screens, read-out: Adenylated Mtb GS (% inhibition) AVG
[8] = pre-incubation protocol, screen 1, read-out: Adenylated Mtb GS (% inhibition) Screen 1
[9] = pre-incubation protocol, screen 2, read-out: Adenylated Mtb GS (% inhibition) Screen 2
[10] = pre-incubation protocol, screen 3, read-out: Adenylated Mtb GS (% inhibition) Screen 3
[11] = pre-incubation protocol, screen 4, read-out: Adenylated Mtb GS (% inhibition) Screen 4
[12] = average over the 4 screens, read-out: Deadenylated Mtb GS (% inhibition) AVG
[13] = screen 1, read-out: Deadenylated Mtb GS (% inhibition) Screen 1
[14] = screen 2, read-out: Deadenylated Mtb GS (% inhibition) Screen 2
[15] = screen 3, read-out: Deadenylated Mtb GS (% inhibition) Screen 3
[16] = screen 4, read-out: Deadenylated Mtb GS (% inhibition) Screen 4
[17] = pre-incubation protocol, single assay values, read-out: IC50, adenylylated MtbGS
[18] = enzyme form not given, read-out: IC50 concentration, MtbGS

T1 sequence (P9WN39 2-478 limits assumed): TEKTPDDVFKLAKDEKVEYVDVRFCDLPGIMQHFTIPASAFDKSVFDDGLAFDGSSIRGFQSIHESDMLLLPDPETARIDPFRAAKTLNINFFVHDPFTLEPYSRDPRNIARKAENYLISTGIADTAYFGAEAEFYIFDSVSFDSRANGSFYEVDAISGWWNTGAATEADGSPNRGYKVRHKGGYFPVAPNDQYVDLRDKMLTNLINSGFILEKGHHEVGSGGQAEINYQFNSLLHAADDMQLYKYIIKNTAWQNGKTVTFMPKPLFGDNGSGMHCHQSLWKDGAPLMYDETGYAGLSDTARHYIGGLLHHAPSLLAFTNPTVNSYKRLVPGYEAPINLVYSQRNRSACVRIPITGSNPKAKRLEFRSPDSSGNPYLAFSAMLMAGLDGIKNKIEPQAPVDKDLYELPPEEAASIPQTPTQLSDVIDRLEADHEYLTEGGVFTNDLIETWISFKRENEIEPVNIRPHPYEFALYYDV
T2 sequence (P9WN39 2-478 limits assumed): as above

| SMILES | inhibition at 10 µM [1, 7] [%] | inhibition at 10 µM [1, 8] [%] | inhibition at 10 µM [1, 9] [%] | inhibition at 10 µM [1, 10] [%] | inhibition at 10 µM [1, 11] [%] | inhibition at 10 µM [2, 12] [%] | inhibition at 10 µM [2, 13] [%] | inhibition at 10 µM [2, 14] [%] | inhibition at 10 µM [2, 15] [%] | inhibition at 10 µM [2, 16] [%] | Activity against M.tb H37Rv, in words [3] | also measured |
| --- | --- | --- | --- | --- | --- | --- | --- | --- | --- | --- | --- | --- |
| NC(CCS(=O)(=O)O)C(=O)O (stereo not shown) [Compound 5] | 38 | 48 | 33 | 40 | 29 | 2 | 0 | 0 | 6 | 0 |  |  |
| O=C(O)c1ccncc1 [Compound 5002] | 45 | 68 | 40 | 38 | 35 | 8 | 0 | 10 | 8 | 14 | no activity |  |
| Nc1nc(N)c(NC(=O)c2ccccc2)c(O)n1 [Compound 5009] | 40 | 37 | 50 | 50 | 22 | 47 | 57 | 41 | 44 | 44 | no activity |  |
| O=C1NC(C(=O)O)=C(C(=O)O)C(c2ccc([N+](=O)[O-])cc2)N1 (stereo not shown) [Compound 5012] | 40 | 55 | 31 | 32 | 42 | 15 | 14 | 16 | 4 | 24 | no activity |  |
| Cc1nc(N)cc(C[n+]2csc(CCOP(=O)(O)O)c2C)n1 [Compound 5016] | 43 | 51 | 43 | 46 | 30 | 11 | 7 | 19 | 3 | 13 | no activity |  |
| OCCNc1cc(N2CCCC2)ncn1 [Compound 5024] | 43 | 46 | 48 | 43 | 36 | 47 | 49 | 44 | 52 | 44 | no activity |  |
| c1ccc(CNc2cc(N3CCCC3)ncn2)cc1 [Compound 5029] | 60 | 79 | 46 | 56 | 60 | 7 | 5 | 8 | 7 | 9 |  | Selectivity for adenylylated vs deadenylylated MtbGS [1]: GS-adenylylated specific; Growth inhibition of M.tb H37Rv (percentage of growth index) [3]: 66%; Activity against intracellular M.tb (Beijing220), in words [4]: moderate activity; Percentage killing of intracellular M.tb (Beijing220), Fig 7 [4]: 67% |
| O=NN(Cc1ccccc1)c1cc(N2CCCC2)ncn1 [Compound 5045] | 0 | 0 | 0 | 0 | 0 | 48 | 44 | 45 | 54 | 48 |  | Selectivity for adenylylated vs deadenylylated MtbGS [1]: significant selectivity for the deadenylylated MtbGS; also recorded: deadenylylated selective; also recorded: specific to the de-adenylylated form of GS; Growth inhibition of M.tb H37Rv (percentage of growth index) [3]: 98%; Percentage killing of intracellular M.tb (Beijing220), Fig 8 ([4]; 100 μM for 2 days, second experiment at 10, 50 and 100 μM): 73%; Activity against intracellular M.tb (Beijing220), in words [4]: moderate activity; Percentage killing of intracellular M.tb (Beijing220), Fig 7 [4]: 64% |
| Cc1cccc(C)c1Nc1c(C(C)C)nc2ccccn12 [Compound 10057] | 99 | 100 | 99 | 98 | 100 | 59 | 67 | 62 | 47 | 58 |  | IC50 [1, 17]: 3.51 µM and 15.6 µM; IC50 [1, 18]: < 100 µM; Selectivity for adenylylated vs deadenylylated MtbGS [1]: GS-adenylylated specific; Growth inhibition of M.tb H37Rv (percentage of growth index) [3]: 53%; Activity against intracellular M.tb (Beijing220), in words [4]: moderate activity; Percentage killing of intracellular M.tb (Beijing220), Fig 7 [4]: 65% |
| COc1ccc(-c2nc3ccccn3c2Nc2c(C)cccc2C)cc1OC [Compound 10059] | 91 | 82 | 99 | 82 | 100 | 44 | 49 | 48 | 36 | 43 |  | IC50 [1, 18]: < 100 µM; Selectivity for adenylylated vs deadenylylated MtbGS [1]: GS-adenylylated specific; IC50 [2]: 13.2 µM and 17.1 µM; Activity against intracellular M.tb (Beijing220), in words [4]: moderate activity; Percentage killing of intracellular M.tb (Beijing220), Fig 7 [4]: 54% |
| Nc1nc(O)c2ccccc2n1 [Compound 12004] | 34 | 39 | 32 | 33 | 30 | 42 | 50 | 43 | 38 | 38 | no activity |  |
| CP(=O)(O)CC[C@H](N)C(=O)O [PhosT, phosphinotricin, reference compound] | 98 | 100 | 95 | 97 | 100 | 100 | 100 | 98 | 100 | 100 |  | IC50 [1, 17]: 0.016 µM; IC50 [2]: 0.83 µM |
| CC[C@@H](CO)NCCN[C@@H](CC)CO [ethambutol] |  |  |  |  |  |  |  |  |  |  |  | Breakpoint concentration to which the H37Rv strain was sensitive [5]: 9.4 µg/mL |
| NNC(=O)c1ccncc1 [isoniazid] |  |  |  |  |  |  |  |  |  |  |  | Breakpoint concentration to which the H37Rv strain was sensitive [5]: 0.25 µg/mL; Susceptibility of the Beijing220 clinical isolate [6]: resistant |
